From patent US20160000787A1, “INHIBITORS OF CDK8/19 FOR USE IN TREATING ESTROGEN RECEPTOR POSITIVE BREAST CANCER” (SENEX BIOTECHNOLOGY, INC., priority 2013, published 2016)

What was measured:
Assay type in all cases: cell-based
BT474 cells [1] = experiment: Growth inhibition, 6-day treatment, Coulter counter; details: 6 days
From the text: (§1) Both MCF7-1pE and MCF7-Veh are resistant to tamoxifen and MCF7-Veh is also resistant to fulvestrant.

MCF7 cells [2] = experiment: as above; details: 6 days
From the text: as §1

MCF7-1pE cells [3] = experiment: as above; details: 6 days
From the text: as §1

MCF7-Veh cells [4] = experiment: as above; details: 6 days
From the text: as §1

T47D cells [5] = experiment: as above; details: 6 days
From the text: as §1

[6] = system: estrogen-depleted MCF7 cells; experiment: Estrogen (E2) mitogenic stimulation assay, flow cytometric cell counting; details: for decrease of cell number: 4 days after E2 addition, fulvestrant 1 nM and/or Senexin A 1 μM; for effect on E2-stimulated cell growth: 10 nM E2
Procedure: To test the effect of CDK8/19 inhibition on the mitogenic effect of estrogen in estrogen-responsive BrCa cells, MCF7 cells (ER+BrCa line) were placed into estrogen-depleted phenol red-free media with 10% charcoal-stripped serum. Under these conditions cells are largely but not completely estrogen-depleted (full depletion would require adapting the cells to low serum, since the cells can synthesize estrogen from serum components). Cells were then plated in the presence or absence of Senexin A (at 1 μM and 5 μM concentrations), and either 10 nM of the estrogen 17-β-estradiol (E2) or vehicle control were added on the following day. Cell growth was measured by flow cytometric counting of live (PI-negative) and dead (PI-positive) cells over 4 days.
The interaction between Senexin A and fulvestrant in MCF7 cells was investigated in the estrogen (E2) mitogenic stimulation assay, carried out as described in example 1, with the cell number measured by flow cytometry 4 days after E2 addition.

BT474 cells [7] = experiment: Time course of cell growth over 7 days, Coulter counter; details: different concentrations
From the text: (§2) Senexin A alone inhibited cell growth, with the strongest effects observed in the estrogen-dependent lines T47D and parental MCF7 and the weakest effects in cell lines that are fully or partially estrogen-independent (MCF7-Veh, MCF7-1p).

MCF7 cells [8] = experiment: as above; details: different concentrations
From the text: as §2

T47D cells [9] = experiment: as above; details: different concentrations
From the text: as §2

MCF7-1pE cells [10] = experiment: Long-term (11-day) drug treatment, crystal violet staining
MCF7-Veh cells [11] = experiment: as above
[12] = system: CXCL12 expression in estrogen-depleted MCF7 cells; experiment: QPCR analysis of estrogen-inducible gene expression; details: two concentrations of Senexin A, with or without E2
From the text: (§3) Rae et al., (2005) used microarray profiling to analyze the effects of E2 and ER antagonists on gene expression in three ER+BrCa cell lines, MCF7, T47D and BT-474. […] The cytokine CXCL12 was also shown to mediate the mitogenic effect of E2 (Sauve et al., 2009) and, together with its receptor CXCR4, to be a key determinant of metastasis in cancers of the breast and other organs (Muller et al., 2001; Rhodes et al., 2011). […] The effect of Senexin A on CXCL12, a known mediator of metastasis, is of particular interest as a possible cause of the association of CDK8 expression with shorter RFS.

[13] = system: GREB1 expression in estrogen-depleted MCF7 cells; experiment: as above; details: two concentrations of Senexin A, with or without E2
From the text: as §3

[14] = system: TFF1 expression in estrogen-depleted MCF7 cells; experiment: as above; details: two concentrations of Senexin A, with or without E2
From the text: as §3

[15] = system: ER-dependent ERE-containing promoter in T47D-ER/Luc cells; experiment: ER-dependent ERE promoter luciferase reporter assay; details: different concentrations; 10 nM E2 added 1 h later; read 18 hrs later
Procedure: To determine whether the effect of CDK8 on ER-inducible gene expression is mediated through inhibition of the transcriptional effect of ER, which is exerted through ER binding to the ERE promoter element, a T47D-based reporter cell line was used. The cell line T47D-ER/Luc (obtained from Signosis) expresses firefly luciferase from the ER-dependent ERE-containing promoter. The reporter cell line was estrogen-depleted, then Senexin A was added at different concentrations, and one hour later 10 nM E2 was added. 18 hrs later, cells were counted and luciferase activity was measured.

[16] = Homo sapiens, 144 h, FUL 1 nM, alone or with SenA 5 μM, read-out: % growth inhibition relative to control
[17] = Homo sapiens, 144 h, FUL 10 nM, alone or with SenA 5 μM, read-out: % growth inhibition relative to control
[18] = 144 h, FUL 1 nM, alone or with SenA 5 μM, read-out: % growth inhibition relative to control
[19] = 144 h, FUL 10 nM, alone or with SenA 5 μM, read-out: % growth inhibition relative to control
[20] = Homo sapiens, 144 h, TAM 1 μM, alone or with SenA 5 μM, read-out: % growth inhibition relative to control
[21] = Homo sapiens, 144 h, TAM 5 μM, alone or with SenA 5 μM, read-out: % growth inhibition relative to control
[22] = 144 h, TAM 1 μM, alone or with SenA 5 μM, read-out: % growth inhibition relative to control
[23] = 144 h, TAM 5 μM, alone or with SenA 5 μM, read-out: % growth inhibition relative to control

`C[C@]12CC[C@@H]3c4ccc(O)cc4C[C@@H](CCCCCCCCC[S+]([O-])CCCC(F)(F)C(F)(F)F)[C@H]3[C@@H]1CC[C@@H]2O` (stereo partly shown) [FUL, fulvestrant] was tested, and the inhibition at 0.001 µM (BT474 cells [1]; Homo sapiens, BT-474, 144 h, FUL 1 nM, alone or with SenA 5 μM, read-out: % growth inhibition relative to control) was 17.7%, the inhibition at 0.01 µM (BT474 cells [1]; Homo sapiens, BT-474, 144 h, FUL 10 nM, alone or with SenA 5 μM, read-out: % growth inhibition relative to control) was 22.6% and the inhibition at 0.001 µM (MCF7 cells [2]; [16]) was 62%. For the same molecule, the inhibition at 0.01 µM (MCF7 cells [2]; [17]) was 63.6%, the inhibition at 0.001 µM (MCF7-1pE cells [3]; [18]) was 49.7% and the inhibition at 0.01 µM (MCF7-1pE cells [3]; [19]) was 57.2%. The inhibition at 0.001 µM (MCF7-Veh cells [4]; [18]) was 12.4%, the inhibition at 0.01 µM (MCF7-Veh cells [4]; [19]) was 28% and the inhibition at 0.001 µM (T47D cells [5]; [16]) was 56.5%. For the same molecule, the inhibition at 0.01 µM (T47D cells [5]; [17]) was 58.2% and the “decrease of cell number” value [6] was 27%.
`N#Cc1ccc2ncnc(NCCc3ccccc3)c2c1` [Senexin A] was tested, and the “% growth inhibition relative to control” value (BT474 cells [1]; SenA 5 μM) was 23.9%, the “% growth inhibition relative to control” value (MCF7 cells [2]; SenA 5 μM) was 37% and the “% growth inhibition relative to control” value (MCF7-1pE cells [3]; SenA 5 μM) was 19.1%. For the same molecule, the “% growth inhibition relative to control” value (MCF7-Veh cells [4]; SenA 5 μM) was 15.5%, the “% growth inhibition relative to control” value (T47D cells [5]; SenA 5 μM) was 48% and the “effect on E2-stimulated cell growth” value ([6]; 1 μM Senexin A, over 4 days) was “partial effect”. The “effect on E2-stimulated cell growth” value ([6]; 5 μM Senexin A, over 4 days) was “abolished”, the “effect on cell growth without E2 addition” value ([6]; 5 μM Senexin A, no E2, over 4 days) was “inhibited cell growth without E2 addition but to a lesser extent” and the “decrease of cell number” value [6] was 5%. The “nature of effect / induction of cell death (PI-positive cells)” value ([6]; Senexin A 1 μM and 5 μM, over 4 days) was “cytostatic and were not associated with any significant induction of cell death”, the “growth inhibition, time course” value (BT474 cells [7]) was “concentration-dependent growth inhibition” and the “growth inhibition, time course” value (MCF7 cells [8]) was “concentration-dependent growth inhibition”. The “growth inhibition, time course” value (T47D cells [9]) was “concentration-dependent growth inhibition”, the “potentiation of fulvestrant effects” value (MCF7-1pE cells [10]) was “especially apparent” and the “potentiation of fulvestrant effects” value (MCF7-Veh cells [11]) was “especially apparent”. For the same molecule, the “CXCL12 expression (QPCR)” value [12] was “inhibited”, the “GREB1 expression (QPCR)” value [13] was “inhibited” and the “TFF1 expression (QPCR)” value [14] was “inhibited”. The “transcription from ER-dependent promoter (luciferase activity)” value [15] was “strongly inhibited”.
`CN1CCN(C(=O)c2ccc3cc(CCNc4ncnc5ccc(C#N)cc45)ccc3c2)CC1` [Senexin B] was tested, and the “growth inhibition, time course” value (BT474 cells [7]) was “concentration-dependent growth inhibition”, the “growth inhibition, time course” value (MCF7 cells [8]) was “concentration-dependent growth inhibition” and the “growth inhibition, time course” value (T47D cells [9]) was “concentration-dependent growth inhibition”.
For `CC/C(=C(\c1ccc(O)cc1)c1ccc(OCCN(C)C)cc1)c1ccccc1` [TAM, 4-OH tamoxifen], the inhibition at 1 µM (BT474 cells [1]; Homo sapiens, BT-474, 144 h, TAM 1 μM, alone or with SenA 5 μM, read-out: % growth inhibition relative to control) was 28.8%, the inhibition at 5 µM (BT474 cells [1]; Homo sapiens, BT-474, 144 h, TAM 5 μM, alone or with SenA 5 μM, read-out: % growth inhibition relative to control) was 42.3% and the inhibition at 1 µM (MCF7 cells [2]; [20]) was 34.8%. For the same molecule, the inhibition at 5 µM (MCF7 cells [2]; [21]) was 50.7%, the inhibition at 1 µM (MCF7-1pE cells [3]; [22]) was -1.3% and the inhibition at 5 µM (MCF7-1pE cells [3]; [23]) was 1.5%. The inhibition at 1 µM (MCF7-Veh cells [4]; [22]) was 2.6%, the inhibition at 5 µM (MCF7-Veh cells [4]; [23]) was 1% and the inhibition at 1 µM (T47D cells [5]; [20]) was 54.6%. For the same molecule, the inhibition at 5 µM (T47D cells [5]; [21]) was 62.3%.
